Results reported in PubChem BioAssay (NCI).
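Step 1: Grow cells in 96-well plates. Step 2: Expose to compound for 48 hours at 5 concentrations. Step 3: Interpolate endpoints linearly; if unreached, use highest concentration. GI50 is the concentration that inhibits growth by half. TGI denotes the concentration required for complete inhibition of growth.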

How the values were obtained:
Assay in all cases: NCI anticancer screen, dose series, 48 h
M14 melanoma = tested on: M14 melanoma
HT29 colon = tested on: HT29 colon
OVCAR-3 ovarian = tested on: OVCAR-3 ovarian
RPMI-8226 leukemia = tested on: RPMI-8226 leukemia
SW-620 colon = tested on: SW-620 colon
U251 CNS = tested on: U251 CNS
CAKI-1 renal = tested on: CAKI-1 renal
SN12C renal = tested on: SN12C renal
NCI-H226 lung = tested on: NCI-H226 lung
MDA-MB-435 = tested on: MDA-MB-435

| SMILES | TGI (M14 melanoma) [µM] | TGI (HT29 colon) [µM] | TGI (OVCAR-3 ovarian) [µM] | TGI (RPMI-8226 leukemia) [µM] | TGI (SW-620 colon) [µM] | TGI (U251 CNS) [µM] | TGI (CAKI-1 renal) [µM] | TGI (SN12C renal) [µM] | TGI (NCI-H226 lung) [µM] | GI50 (M14 melanoma) [µM] | GI50 (SN12C renal) [µM] | GI50 (HT29 colon) [µM] | GI50 (NCI-H226 lung) [µM] | GI50 (RPMI-8226 leukemia) [µM] | GI50 (SW-620 colon) [µM] | GI50 (U251 CNS) [µM] | GI50 (CAKI-1 renal) [µM] | GI50 (OVCAR-3 ovarian) [µM] | TGI (MDA-MB-435) [µM] | GI50 (MDA-MB-435) [µM] |
| --- | --- | --- | --- | --- | --- | --- | --- | --- | --- | --- | --- | --- | --- | --- | --- | --- | --- | --- | --- | --- |
| CCn1c(C)nn2c(=O)c3ccccc3nc2c1=O | > 100 | > 100 | > 100 | > 100 | > 100 | > 100 | > 100 | – | – | – | – | – | – | – | – | – | – | – | – | – |
| C1=C2/CC[C@H](Sc3ccccc3)C2C2(CCCCC/1)OCCO2 (stereo partly specified) | – | 28 | 72.1 | 73.7 | > 100 | > 100 | – | > 100 | 60.4 | – | – | – | – | – | – | – | – | – | – | – |
| CC(=O)[CH-]C(=O)c1ccccc1.CC(=O)[CH-]C(=O)c1ccccc1.CN(C)c1ccc([O-])cc1.CN(C)c1ccc([O-])cc1.Cl.[Ti+4] | > 31.6 | > 31.6 | – | > 31.6 | > 31.6 | > 31.6 | > 31.6 | > 31.6 | 30.9 | 17.5 | 23.7 | 18.1 | 18.2 | 16.8 | 18.5 | > 31.6 | 21 | – | – | – |
| COc1ccc2c(c1)sc1nc(-c3ccccc3)c(-c3cccc4ccccc34)n12 | > 100 | 4.38 | 1.46 | 27.4 | > 100 | > 100 | > 100 | > 100 | 5.28 | 0.475 | 1.02 | 0.353 | 0.604 | 0.99 | 0.346 | 0.447 | 0.792 | 0.35 | – | – |
| CC1(C(=O)O)CCC[C@@]2(C)C1CC[C@@]1(C)c3cocc3CCC21 (stereo partly specified) | > 100 | > 100 | > 100 | > 100 | > 100 | > 100 | > 100 | > 100 | > 100 | – | – | – | – | – | – | – | – | – | – | – |
| Clc1ccccc1C(SCc1ccccc1)SCc1ccccc1 | > 100 | > 100 | > 100 | > 100 | > 100 | > 100 | > 100 | > 100 | > 100 | – | – | – | – | – | – | – | – | – | – | – |
| COC(CCC[N+](C)(C)C)CC[N+](C)(C)C (stereo unspecified) | > 100 | > 100 | > 100 | > 100 | > 100 | > 100 | > 100 | > 100 | > 100 | – | – | – | – | – | – | – | – | – | – | – |
| CNC(=S)OCCC(C)CCCC(C)C (stereo unspecified) | 35.2 | 31.3 | – | 26.8 | 30.7 | 30.1 | 31.7 | 30.3 | – | – | – | – | – | – | – | – | – | – | – | – |
| CC(C)=CCC\C(C)=C/C=C/C(C)=C\C=C\C(C)=C/C=C/C=C(C)\C=C\C=C(C)/C=C/C=C(/C)CCC=C(C)C | > 100 | > 100 | > 100 | – | > 100 | – | > 100 | > 100 | > 100 | – | – | – | – | – | – | – | – | – | > 100 | – |
| O=C(CCNC12CC3CC(CC(C3)C1)C2)c1ccccc1 | 37.1 | 23.6 | – | 26.4 | 35.6 | 31.9 | – | 36.3 | > 100 | – | – | – | – | – | – | – | – | – | 65.9 | – |
| COC(=O)C1(C(C)C)CCc2c(OC)ccc(OC)c2C1=O (stereo unspecified) | > 100 | > 100 | > 100 | > 100 | > 100 | > 100 | > 100 | > 100 | – | – | – | – | – | – | – | – | – | – | – | – |
| Nc1ccccc1S(=O)(=O)N(CC(=O)O)c1ccccc1 | > 100 | > 100 | – | > 100 | > 100 | > 100 | > 100 | > 100 | – | – | – | – | – | – | – | – | – | – | – | – |
| O=C(CCc1nc(=S)[nH][nH]1)Nc1ccc(Cl)c(Cl)c1 | > 100 | > 100 | > 100 | > 100 | > 100 | > 100 | > 100 | > 100 | > 100 | – | – | – | – | – | – | – | – | – | – | – |
| COC(=O)c1ccccc1NC(=O)C(=O)Cc1nc2c3c(ccc2[nH]c1=O)C(=O)c1ccccc1C3=O | > 100 | > 100 | > 100 | > 100 | 55.7 | 35.9 | > 100 | > 100 | 16.7 | – | – | – | – | – | – | – | – | – | – | – |
| C[N+](C)(C)CC(=O)N/N=C(/CC(=O)CC(C1=C(O)c2ccccc2OC1)c1ccccc1)C(=O)Nc1cccc(Cl)c1 (stereo unspecified) | > 100 | > 100 | > 100 | > 100 | > 100 | > 100 | > 100 | > 100 | > 100 | – | – | – | – | – | – | – | – | – | – | – |
| Fc1ccc(NC(=S)SCc2ccc3c(c2)OCO3)cc1F | 39.1 | 45.3 | > 100 | – | > 100 | 43.1 | > 100 | 39.4 | > 100 | – | – | – | – | – | – | – | – | – | 51.8 | – |
| O=C(Nc1nc2ccc([N+](=O)[O-])cc2s1)C(=O)C(C1OC(=O)c2ccccc21)[N+](=O)[O-] (stereo unspecified) | > 100 | > 100 | > 100 | > 100 | > 100 | > 100 | > 100 | > 100 | > 100 | – | – | – | – | – | – | – | – | – | – | – |
| CCN1CCN(Cc2ccc(NC(=O)c3cccc(C#Cc4cccc5[nH]nc(N)c45)c3)cc2C(F)(F)F)CC1 | 0.547 | 1.16 | 2.17 | 3.04 | 1.59 | – | 1.76 | 1.93 | – | 0.0622 | 0.584 | 0.118 | – | 0.702 | 0.343 | – | 0.485 | 0.615 | 1.57 | 0.339 |
| NC1=NCCC1(c1ccccc1)c1ccccn1 (stereo unspecified) | > 100 | > 100 | > 100 | > 100 | > 100 | > 100 | > 100 | > 100 | > 100 | – | – | – | – | – | – | – | – | – | – | – |
| CN(C)N=Nc1ccc(C(N)=O)cc1 | > 100 | > 100 | > 100 | > 100 | > 100 | > 100 | > 100 | > 100 | > 100 | – | – | – | – | – | – | – | – | – | – | – |
| O=C(O)CCC(NC(=O)c1ccc(Nc2nc3ccccc3nc2-c2cccs2)cc1)C(=O)O (stereo unspecified) | > 100 | > 100 | > 100 | > 100 | > 100 | > 100 | > 100 | > 100 | > 100 | – | – | – | – | – | – | – | – | – | – | – |
